In brackets after ≈: the same amount, converted by molar mass. Activity calls are given as the source filed them. The rule behind the calls is not given here.
Tests used:
[1] = system: Klebsiella pneumoniae; test: Antimicrobial activity against Klebsiella pneumoniae assessed as zone of inhibition by agar diffusion method; type: functional
[2] = system: Rattus norvegicus; test: Antiinflammatory activity in albino rat assessed as inhibition of carrageenan-induced paw edema measured as paw thickness at 0.03 mmol/kg, po administered 1 hr prior to carrageenan challenge measured after 6 hrs (reference value: 1.081 +/- 0.257 mm)
[3] = system: Staphylococcus aureus; test: Antimicrobial activity against Staphylococcus aureus assessed as zone of inhibition >8 mm by twofold serial dilution method; type: functional
[4] = system: Rattus norvegicus; test: Antiinflammatory activity in albino rat assessed as inhibition of carrageenan-induced paw edema measured as paw thickness at 0.03 mmol/kg, po administered 1 hr prior to carrageenan challenge measured after 4 hrs (reference value: 1.260 +/- 0.172 mm)
[5] = system: Staphylococcus aureus; test: Antimicrobial activity against Staphylococcus aureus assessed as zone of inhibition by agar diffusion method; type: functional
[6] = system: Micrococcus luteus; test: Antimicrobial activity against Micrococcus luteus assessed as growth inhibition by agar diffusion method; type: functional
[7] = system: Klebsiella pneumoniae; test: Antimicrobial activity against Klebsiella pneumoniae assessed as zone of inhibition >8 mm by twofold serial dilution method; type: functional
[8] = system: Mus musculus; test: Analgesic activity in mouse assessed as inhibition of acetic acid-induced writhing measured as potency at 0.03 mM/kg; set-up: scale not given: the % may be the effect or the level left
[9] = system: Mus musculus; test: Analgesic activity in mouse assessed as inhibition of acetic acid-induced writhing at 0.03 mM/kg
[10] = system: Escherichia coli; test: Antimicrobial activity against Escherichia coli assessed as zone of inhibition by agar diffusion method; type: functional
[11] = system: Rattus norvegicus; test: Antiinflammatory activity in albino rat assessed as inhibition of carrageenan-induced paw edema at […], po administered 1 hr prior to carrageenan challenge measured after 6 hrs relative to control; type: functional
[12] = system: Rattus norvegicus; test: Antiinflammatory activity in albino rat assessed as inhibition of carrageenan-induced paw edema at […], po administered 1 hr prior to carrageenan challenge measured after 4 hrs relative to control; type: functional
[13] = system: Escherichia coli; test: Antimicrobial activity against Escherichia coli assessed as zone of inhibition >8 mm by twofold serial dilution method; type: functional
[14] = system: Micrococcus luteus; test: Antimicrobial activity against Micrococcus luteus assessed as zone of inhibition by agar diffusion method; type: functional
[15] = system: Rattus norvegicus; test: Ulcerogenic effect in po dosed rat assessed as lesions of bleedings; type: toxicity, organism-based; conditions: in vivo
[16] = system: Micrococcus luteus; test: Antimicrobial activity against Micrococcus luteus assessed as zone of inhibition >8 mm by twofold serial dilution method; type: functional

SMILES	diameter of the inhibition zone (DIZ) [1] [mm]	Activity [2] [mm]	MIC [3] [µM]	Activity [4] [mm]	diameter of the inhibition zone (DIZ) [5] [mm]	growth inhibition (GI) [6]	MIC [7] [µM]	Activity [8] [%]	inhibition (INH) [9] [%]	diameter of the inhibition zone (DIZ) [10] [mm]	inhibition in vivo [11] [%]	inhibition in vivo [12] [%]	MIC [13] [µM]	diameter of the inhibition zone (DIZ) [14]	Activity [15]	MIC [16] [µM]
CC1=NN(C(=O)c2cc3ccccc3oc2=O)C(=O)C1CNc1c(O)cc(S(=O)(=O)O)c2ccccc12 (stereo unspecified)	18	2.16	48 (≈ 25 µg/mL)	2.715	15	inactive	48 (≈ 25 µg/mL)	79.25	54.55	15	45.3	21.6	24 (≈ 12.5 µg/mL)	inactive		
CC1=NN(C(=O)c2cc3ccccc3oc2=O)C(=O)C1CNc1ccc(S(N)(=O)=O)cc1 (stereo unspecified)	15	0.873	55 (≈ 25 µg/mL)	1.079	15	inactive	55 (≈ 25 µg/mL)	94.33	64.93	12	77.9	68.9	27.5 (≈ 12.5 µg/mL)	inactive	Non-toxic	
CC1=NN(C(=O)c2cc3ccccc3oc2=O)C(=O)C1CNc1ccc(O)cc1 (stereo unspecified)	18	1.947	63.9 (≈ 25 µg/mL)	2.231	12		63.9 (≈ 25 µg/mL)	60.38	41.56	18	50.7	35.6	63.9 (≈ 25 µg/mL)	18 mm	Toxic	128 (≈ 50 µg/mL)
O=C(O)c1cn(C2CC2)c2cc(N3CCNCC3)c(F)cc2c1=O [CIPROFLOXACIN]	17		9.43 (≈ 3.12 µg/mL)		24		0.59 (≈ 0.195 µg/mL)						4.72 (≈ 1.56 µg/mL)	25 mm		0.59 (≈ 0.195 µg/mL)
CC1=NN(C(=O)c2cc3ccccc3oc2=O)C(=O)C1CNc1ccc([N+](=O)[O-])cc1 (stereo unspecified)	12	1.107	119 (≈ 50 µg/mL)	1.32	12		119 (≈ 50 µg/mL)	86.79	59.74	15	72	61.9	119 (≈ 50 µg/mL)	15 mm	Non-toxic	119 (≈ 50 µg/mL)
COc1ccc(NCC2C(=O)N(C(=O)c3cc4ccccc4oc3=O)N=C2C)cc1 (stereo unspecified)	18	1.821	61.7 (≈ 25 µg/mL)	2.215	15	inactive	61.7 (≈ 25 µg/mL)	47.17	32.47	18	55.1	36.1	30.8 (≈ 12.5 µg/mL)	inactive	Toxic	

Source: ChEMBL document CHEMBL3286206, “Conventional and microwave assisted synthesis of pyrazolone Mannich bases possessing anti-inflammatory, analgesic, ulcerogenic effect and antimicrobial properties” (Bioorg Med Chem Lett, 2014)
